Assay results as given in publication PMC12658820, “Development of Tunable Rose Bengal-Based nanoGUMBOS as Potential Selective Chemotherapeutic Agents” (ACS Omega, 2025).
Several values for one entry are separate records, joined by “and”; a condition that tells them apart may be missing. Identical values can stand only once. Entries after “also recorded” stand apart in the source; their conditions may differ. Counter-ions that a name gives are not always drawn.

Experiments:
A549 cells = system: A549 cells; set-up: method as in numbers not shown in text; conditions: literature comparison, ref numbers not shown in text; cited from earlier work
[1] = Octanol/water partition experiments; type: physicochemical; conditions: stirred 24 h, absorbance at 562 nm, triplicate
[2] = Dynamic light scattering (DLS) nanoparticle size; type: physicochemical; conditions: 10 μM solutions of nanoGUMBOS
Description: (§1) The series of RB-based nanoGUMBOS was synthesized by a simple reprecipitation method to form nanoparticles from a 10 mM RB-based GUMBOS stock solution in MeOH or DMSO. Briefly, a small aliquot of a MeOH/DMSO solution of each RB-based GUMBOS was rapidly introduced into a large volume of an aqueous cell medium (Dulbecco’s modified Eagle’s medium (DMEM), containing 10% fetal bovine serum) or water under ultrasonication. In this condition, a supersaturation of the hydrophobic RB-based GUMBOS is achieved in the aqueous system, leading to the precipitation of the RB-based GUMBOS into small particles. After that, the solution was placed on the bench and allowed to rest for a period of 15 min to allow the nucleation of the nanoparticles.
(§2) Once the incubation period concluded, DLS and S-TEM instruments were used to characterize the nanoGUMBOS. Dynamic light scattering was performed using a Malvern Zetasizer. […] Each compound was scanned at 25 °C for 10 s each scan, and the system automatically adjusted the scans needed per run. S-TEM was employed via the use of a JEOL-SEM 7600F instrument, with a vacuum pressure of 1.9E^–4 Pa, electron beam at 30,000 V, and amplified current of […], with each micrograph content being produced at 8000× magnification. ImageJ software was used for the measurements of electron micrograph images. The polydispersity index from the TEM micrograph was calculated using eq . 1 PDI=sizedeviation(σ)/sizemean(μ)

S-TEM nanoparticle size = type: physicochemical; conditions: for TEM mean size / TEM PDI: 10 μM solutions of nanoGUMBOS; for TEM PDI: size deviation/size mean
Description: as §1, §2

DLS ζ-potential = type: physicochemical; conditions: nanoGUMBOS, triplicate
Description: Ultraviolet–visible (UV–vis) absorption was measured between 560 and 562 nm using a Jasco V-750 spectrophotometer for the characterization of GUMBOS and nanoGUMBOS experiments. Fluorescence excitation and emission spectra were recorded using a Jasco FP-8500 fluorescence spectrophotometer. Fourier transform infrared (FT-IR) spectra were collected using a Thermo Scientific Nicolet iS20 instrument with 256 scans and a resolution of 4 cm^–1. A JEOL JSM 7600F scanning electron microscope (SEM) was employed for surface imaging and analysis of samples. A Mettler Toledo pH meter was used for measuring the pH of the various solutions. Ultrafast liquid chromatography (UFLC) coupled with a SHIMADZU electrospray ionization-mass spectrometer (ESI-MS) system was used for the characterization of the synthesized GUMBOS. ^1H and ^13C NMR spectra were collected using a JEOL ECZL-400S NMR spectrometer (400 MHz, CCRL05) equipped with a 24-position autosample changer and autotune probe. Dynamic light scattering (DLS) and ζ-potential measurements were conducted by using a Malvern Zetasizer Nano-Series system. The blood–brain barrier permeability was assessed by using a Bioassay Systems Parallel Artificial Membrane Permeability Assay-BBB Kit. Confocal fluorescence imaging was performed using a Zeiss confocal laser scanning microscope, LSM-710, equipped with an inverted Axio Observer Z1 platform and Airyscan detection. Triple-deionized water was purified by using a Millipore Milli-Q system.
as §2, with “ImageJ software was used for the measurements of electron micrograph images.” left out, “1 PDI=sizedeviation(σ)/sizemean(μ)” left out

[3] = system: A549 lung carcinoma cells; test: Confocal microscopy cell viability (DAPI-stained nuclei), A549; type: cell-based, human; conditions: for average viability decrease, A549 / cell viability versus control, statistical significance, A549 / average cell viability, A549: 10 μM nanoGUMBOS; for cell viability versus control, statistical significance, A549: unpaired t-test; for selectivity index (SI): cytotoxicity of A549 cells / cytotoxicity of HEK293 cells; for nuclear morphology in fluorescence imaging: DAPI staining, in the dark, A549 and HEK293 imaged; for average cell viability, A549: no light activation, % of control
Description: (§3) HEK293 or A549 Cells were collected from a T-25 culture flask following a standard cell culture harvesting procedure. A549 cells were diluted in cell culture media to a concentration of roughly 1,35,000 cells/mL. From this, the cells were loaded into individual chambers on an eight-chamber microscope slide, with a cell count per chamber of roughly 60,000 cells. This slide was then placed in an incubator (37 °C and 5.0% CO2 conditions) for 24 h before treating. When the treatment began, the original cell culture media was removed from the cells, and a compound/media mixture was added to each well. A control group of only cell culture media/DMSO was prepared and applied to one chamber in the slide, with the others consisting of treatment groups, following a serial dilution from 10 μM down to 0.15625 μM. After applying the treatment, the plate was returned to the incubator for 24 h. Following the incubation period, the cells were fixed using a 4% formaldehyde solution in the PBS buffer for 15 min at room temperature. After 15 min, the cells were washed three times with PBS. Then, to prepare the cells for staining, 0.5% Triton X-100 in PBS was applied to the cells for 15 min at room temperature. This was followed by three washes with PBS again. A 3% bovine serum albumin in PBS buffer was added to the cells for 60 min to block potential nonspecific binding sites for later 4′,6-diamidino-2-phenylindole (DAPI) staining. Another three washes with PBS were applied to the cells, and the cells were stained with a 1 μg/mL solution of DAPI and a mounting solution.
(§4) The imaging method employed fluorescence microscopy for nuclear staining visualization, allowing for an accurate quantification of viable cells based on intact nuclear morphology. ImageJ software was used to count the cell nuclei in each image. To avoid background signal, the software was set to only include nuclei of 20 μm^2 or larger. Viability quantification was performed by counting intact, properly stained nuclei and expressing results as a percentage of control values, with error bars representing standard error of the mean (SEM) from triplicate experiments. Statistical analysis was performed using unpaired t-tests with significance set at p < 0.05. Each nanoGUMBOS treatment was compared independently to control within the same cell lines, representing planned pairwise comparisons rather than exploratory testing. Given this, each nanoGUMBOS formulation that reduces cell viability will be assessed for an untreated cell line. Comparisons are made within discrete experimental groups for each cell line; thus, the unpaired t-test is employed. Dose–response curves and IC50 values were generated using a four-parameter logistic regression model implemented in Python (v3.12) within Jupyter Notebook (Anaconda distribution). Curve fitting was performed with the SciPy package (version 1.13), and figures were prepared using Matplotlib (v3.9). The rationale for selecting A549 (lung carcinoma) and HEK293 (noncancerous embryonic kidney) cell lines was based on their well-characterized nature and widespread use in cancer research, representing a relevant cancer model and a noncancerous control, respectively. […] Selectivity will be calculated using eq . 5 SI=cytotoxicityofA549cells/cytotoxicityofHEK293cells

[4] = system: HEK293 human embryonic kidney cells; test: Confocal microscopy cell viability (DAPI-stained nuclei), HEK293; type: cell-based; conditions: 10 μM nanoGUMBOS; for cell viability versus control, statistical significance, HEK293: unpaired t-test
Description: as §3, §4

Molecule	selectivity index (A549 cells)	K o/w (octanol–water partition constant) [1]	DLS PDI [2]	DLS mean size [2]	TEM mean size (S-TEM nanoparticle size)	TEM PDI (S-TEM nanoparticle size)	ζ-potential (DLS ζ-potential)	average viability decrease, A549 ([3]; 24 h)	cell viability versus control, statistical significance, A549 [3]	selectivity index (SI) [3]	nuclear morphology in fluorescence imaging ([3]; nanoGUMBOS, 24 h)	IC50 ([3]; nanoGUMBOS, 24 h, four-parameter logistic fit, read-out: IC50 against A549 cells)	cell viability decrease, HEK293 ([4]; 24 h)	cell viability, HEK293 ([4]; 24 h, % of control)	cell viability versus control, statistical significance, HEK293 [4]	DLS mean size ([2]; listed as [Na] 2 [RB])	average cell viability, A549 ([3]; 24 h)	DLS mean size ([2]; listed as [TPP] 2 [RB])	nanoparticle diameter (method not stated at the place) (S-TEM nanoparticle size; nanoGUMBOS by reprecipitation)
COc1cccc2c1C(=O)c1c(O)c3c(c(O)c1C2=O)C[C@@](O)(C(=O)CO)C[C@@H]3O[C@H]1C[C@H](N)[C@H](O)[C@H](C)O1 [Doxorubicin]	1.5	–	–	–	–	–	–	–	–	–	–	–	–	–	–	–	–	–	–
CCCCCCCCCCCCn1cc[n+](C)c1.CCCCCCCCCCCCn1cc[n+](C)c1.O=C([O-])c1c(Cl)c(Cl)c(Cl)c(Cl)c1-c1c2cc(I)c(=O)c(I)c-2oc2c(I)c([O-])c(I)cc12 [[C12MIm]2[RB], 1-dodecyl-3-methylimidazolium Rose Bengal]	–	2.5	0.37	59.87 ± 8.23 nm	70.31 ± 16.43 nm	0.23	≈ −30 mV	77.4%	statistically significant reductions in cell viability; also recorded: statistically significant decrease in cell viability	2.1	altered nuclear morphology consistent with apoptotic processes	2.16 µM and 2.2 µM	63.1%	47.1%	statistically significant reductions in cell viability; also recorded: statistically significant decrease in cell viability	–	–	–	–
O=C(O)c1c(Cl)c(Cl)c(Cl)c(Cl)c1-c1c2cc(I)c(=O)c(I)c-2oc2c(I)c(O)c(I)cc12 [[Na]2[RB], Rose Bengal disodium salt, reference compound]	–	4.5	0.58	230.9 nm	268.62 ± 74.02 nm	0.28	−18.4 mV	–	no statistically significant difference	–	minimal cellular changes	–	–	–	no statistically significant difference	230.90 ± 17.89 nm	86.7%	–	–
O=C([O-])c1c(Cl)c(Cl)c(Cl)c(Cl)c1-c1c2cc(I)c(=O)c(I)c-2oc2c(I)c([O-])c(I)cc12.c1ccc([P+](c2ccccc2)(c2ccccc2)c2ccccc2)cc1.c1ccc([P+](c2ccccc2)(c2ccccc2)c2ccccc2)cc1 [[TPP]2[RB], tetraphenylphosphonium Rose Bengal]	–	2.8	0.22	40.66 nm	45.33 ± 11.53 nm	0.24	approximately −30 mV	57.2%	statistically significant reductions in cell viability; also recorded: statistically significant decrease in cell viability	1.5	altered nuclear morphology consistent with apoptotic processes	–	–	–	statistically significant reductions in cell viability; also recorded: statistically significant decrease in cell viability	–	below 50%	40.66 ± 3.33 nm	below 100 nm
N.N.[Cl][Pt][Cl] [cisplatin]	under 2	–	–	–	–	–	–	–	–	–	–	–	–	–	–	–	–	–	–
tetrabutylphosphonium Rose Bengal [[TBP]2[RB]]	–	–	–	–	–	–	–	–	no statistically significant difference	–	minimal cellular changes	–	–	–	no statistically significant difference	–	–	–	–
